# Results taken from patent US7291347B2, “Succinate salt of O-desmethyl-venlafaxine” (Wyeth, priority 2001, dated 2007).
# Legend:
# [1] = Physical stability of the crystalline form; format: physicochemical
# [2] = Aqueous solubility (UV spectrophotometry); format: physicochemical; details: water, thermodynamic from solid; at 25° C.
# Procedure: The aqueous solubility (reported above) of Form I of ODV succinate was determined according to the following procedure. Materials • Spectrophotometer—Capable of isolating a bandwidth of 2 nm or less at the wavelength of maximum absorbance, and of measuring absorbances in the 0.0 to 1.0 range with a precision of 0.01. A Cary Model 219 spectrophotometer or equivalent is suitable. • Cells—Silica, 1 cm. • Filters—0.45 micron Nylon filters which are chemical resistant or equivalent • Bottles—Glass screw top bottles having a 15 mL or greater capacity. • Shaker—A lateral shaker, wrist shaker, or a vibrator which will not generate heat is suitable. A. For Non UV Absorbing Solvents • 1. To a bottle weigh an amount of sample equivalent to approximately 1½ times the solubility. • 2. […] Agitate the bottles at ambient room temperature for at least 16 hours. • 4. Obtain a clear filtrate layer by either centrifugation of filtration being careful to avoid evaporation. • 5. Quantitatively transfer the solution to a volumetric flask and dilute to volume with water. • 6. Blank the instrument for water. • 7. Make quantitative dilutions to arrive at a suitable concentration for measurement. […] Quantitatively transfer to a volumetric flask with the same solvent used in preparing the standard solution. • 6. Make dilutions as necessary to obtain a concentration suitable for quantitative measurement. […]
# [3] = In situ rat intestinal perfusion (site-specific absorption); format: in vivo; details: for Peff Meloprolol: 20 μg/mL
# Source text: The rat intestine perfusion technique is a direct way to measure the regional absorption properties of a test compound in the gastrointestinal tract. Rat intestinal permeability coefficient (Peff) can be used to predict human in vivo oral absorption of passively absorbed compounds. Fagerholm, M. Johansson, and […], “Comparison between permeability coefficients in rat and human jejunum”, Pharm. […] Meanwhile, some other characteristics such as formulable Maximum Absorbable Dose (MAD), FDA Biopharmaceutical Classification, etc. can also be estimated. […] Rats used in this study were Charles River CD males, ranging in weight from approximately 300-350 grams. Metoprolol (a well-absorbed and passively transported compound) was used as a standard and tested simultaneously along with the ODV compounds. […] All chemicals were of analytical grade. After each experiment, all the analytic assays were performed promptly. For isotope determinations, 0.5 mL of perfusate sample containing ^14C PEG-4000 and ^3H-mannitol was mixed with 5 mL of scintillation cocktail. Radioactivity was counted in a liquid scintillation counter (Wallac 1409). Glucose concentration was determined by the glucose oxidase method (Biochemistry Analyzer). Metoprolol and the ODV compounds were analyzed by HPLC-UV/Vis (HP-1100 with a diode-array detector), using a YMC AQ 120 μ, 5 μ, 150×4.6 mm column and step gradient mobile phase containing water/0.1% TFA and acetonitrile. The ODV compounds and metoroplol were detected at 226 and 272 nm UV wavelength, respectively. Blank perfusate was assayed to evaluate the interference at these chromatographic conditions. The perfusions were performed in three intestinal sections of anesthetized rats: duodenum-jejunum, ileum, and colon. The lengths of the segments were approximately 10-12 cm for small intestine segments and 5-6 cm for colon segments. An inflow cannula was inserted at the proximal end and an outflow cannula was inserted at the distal end. Perfusate was pumped through the segment at 0.19 mL/min, and collected at 20, 40, 55, 70, 85 and 100 minutes. […] The disappearance rates of ODV compound, metoprolol, and glucose were determined from each collection interval by comparing to the initial compound solution remaining in the syringe at the end of the 100 minutes. This is to correct for any losses due to binding to the syringe or tubing. Meanwhile, drug concentration in perfusate samples were corrected for water influx/efflux, which was computed, based on ^14C-PEG-4000 concentration changes. […] Values below this range would indicate tissue damage that allows passage of PEG-4000 outside of the perfused segment, while values above this range would indicate significant water movement out of the segment. Water movement across the gut wall was determined by calculation of net water fluid: Net Water Flux (NWF)=[(1-[…] where PEGout and PEGin are the amount of radioactivity (dpm) of ^14C-PEG-4000 in inlet and outlet sides of the perfused intestinal segment, respectively; Q is the flow rate of perfusate; and L is the length of perfused segment (cm). The presence of the ODV compound in the perfusate was determined by HPLC. The amount of drug present at each time point was corrected for water movement across the wall of the intestine: Cout,[…]) where Cout is the concentration of drug in outlet perfusate; Cout,corr is the concentration of drug in outlet perfusate corrected for water moving in or out of the segment, as determined by the recovery of ^14C-PEG-4000. Effective intestinal permcability, Peff (cm/sec), was determined by the following equation: […] Cin is the concentration of drug in inlet perfusate; 2 μrL is the inner surface area of the perfused segment, with r assumed to be 0.18 cm in the rat (see G. Amidon, […]. Crison. “A theoretical basis for a biopharmaceutic drug classification: The correlation of in vitro drug product dissolution and in vivo bioavailability.” Pharm. Res. 12, 1995, 413-420) and L the length of the perfused segment (cm). […]
# Norepinephrine reuptake = details: in vitro; read-out: Inhibition of amine reuptake (IC50), Norepinephrine; cited from earlier work
# [4] = tested on: Reserpine-Induce Hypothermia; details: i.p.; cited from earlier work
# Dopamine reuptake = details: in vitro; read-out: Inhibition of amine reuptake (IC50), Dopamine; cited from earlier work
# Opiate = details: at 1 uM; cited from earlier work
# Adrenergic α = details: at 1 uM; cited from earlier work
# Serotonin reuptake = details: in vitro; read-out: Inhibition of amine reuptake (IC50), Serotonin; cited from earlier work
# Cholinergic = details: at 1 uM; cited from earlier work
# [5] = Stability in perfusion buffer and jejunal fluids; format: in vitro ADME, rat; details: pH 6.8, 37° C., up to 6 hours
# Procedure: The stability of ODV succinate or fumarate in the solutions of blank perfusion buffer (Pβ), and jejunal fluids (perfusion buffer collected by washing the isolated jejunal segment, pH=6.8) was determined at 37° C. for up to 6 hours.
smiles,measurement,setting,value
"CN(C)CC(c1ccc(O)cc1)C1(O)CCCCC1.O=C(O)CCC(=O)O (stereo not drawn) [Form I, O-des-methyl-Venlafaxine succinate monohydrate]",physically stable at relative humidity,[1],5-95%
same,physically stable up to (temperature),[1],at least 105 °C
same,solubility,[2],32.2 mg/mL
"COCCc1ccc(OCC(O)CNC(C)C)cc1 (stereo not drawn) [Meloprolol, Metoprolol, reference compound]",Peff Meloprolol,"[3]; Colon, perfused together with ODV fumarate",11 10^−5 cm/sec
same,Peff Meloprolol,"[3]; Colon, perfused together with ODV succinate",0.583 ± 0.087 10^−5 cm/sec
same,Peff Meloprolol,"[3]; Ileum, perfused together with ODV fumarate",53 10^−5 cm/sec
same,Peff Meloprolol,"[3]; Ileum, perfused together with ODV succinate",3.22 ± 0.07 10^−5 cm/sec
same,Peff Meloprolol,"[3]; Jejunum, perfused together with ODV fumarate",1.78 ± 0.93 10^−5 cm/sec
same,Peff Meloprolol,"[3]; Jejunum, perfused together with ODV succinate",2.50 ± 0.11 10^−5 cm/sec
"CN(C)CC(c1ccc(O)cc1)C1(O)CCCCC1 (stereo not drawn) [O-desmethylvenlafaxine, 1-[2-(dimethylamino)-1-(4-phenol)ethyl]-cyclohexanol]",IC50,Norepinephrine reuptake,1160 nM
same,Reversal of Reserpine-Induce Hypothermia (minimum effect),[4],3 mg/kg
same,IC50,Dopamine reuptake,13.4 µM
same,"Affinity for Various Neuroreceptors (% inhibition), Opiate",Opiate,7%
same,"Affinity for Various Neuroreceptors (% inhibition), Adrenergic α",Adrenergic α,0%
same,IC50,Serotonin reuptake,180 nM
same,"Affinity for Various Neuroreceptors (% inhibition), Cholinergic",Cholinergic,7%
"CN(C)CC(c1ccc(O)cc1)C1(O)CCCCC1.O=C(O)/C=C/C(=O)O (stereo not drawn) [ODV fumarate, reference compound]",stability in blank perfusion buffer and jejunal fluids,[5],no apparent degradation/metabolism
same,MAD predicted,"[3]; rat, in vivo",about 440 mg
same,Peff as percentage of the succinate's Peff values,"[3]; rat, in vivo",27μ40
same,Peff values,"[3]; rat, in vivo",0.24-0.68 ×10^−5 cm/sec
same,in vivo Fa estimated,"[3]; rat, in vivo",33-45%
